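A five-concentration, 48-hour dose response in 96-well plates underlies each endpoint, interpolated linearly between surrounding concentrations. Abbreviation: GI50, concentration required for 50% inhibition of growth.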 Activity calls are given as the source filed them. Cut-off read from the data, not from the text of the source: active = GI50 up to about 1.1 µM and inactive = higher.
How the values were obtained:
Assay in all cases: inhibition of tumour cell growth, NCI panel, 48 h
[1] = test system: UACC-62
[2] = test system: LOX IMVI
[3] = test system: M19-MEL
[4] = test system: EKVX
[5] = test system: CCRF-CEM
[6] = test system: SNB-19
[7] = test system: UACC-257
[8] = test system: RPMI-8226
[9] = test system: K562
[10] = test system: M14
[11] = test system: HT-29
[12] = test system: HCC 2998
[13] = test system: SK-MEL-28
[14] = test system: DMS-273
[15] = test system: NCI-H226
[16] = test system: OVCAR-3
[17] = test system: SK-OV-3
[18] = test system: TK-10
[19] = test system: HCT-116
[20] = test system: U-251
[21] = test system: OVCAR-8
[22] = test system: CAKI-1
[23] = test system: SN12C
[24] = test system: IGROV-1
[25] = test system: SW-620
[26] = test system: A498
[27] = test system: COLO 205
[28] = test system: DMS-114
[29] = test system: SNB-75
[30] = test system: HOP-92
[31] = test system: KM-20L2
[32] = test system: UO-31
[33] = test system: OVCAR-5
[34] = test system: HL-60
[35] = test system: XF498
[36] = test system: A549
[37] = test system: ACHN
[38] = test system: MOLT-4
[39] = test system: DLD-1
[40] = test system: Malme-3M
[41] = test system: SK-MEL-5
[42] = test system: OVCAR-4
[43] = test system: SR
[44] = test system: SF-268
[45] = test system: RXF 393
[46] = test system: SK-MEL-2
[47] = test system: 786-0
[48] = test system: SNB-78
[49] = test system: HCT-15
[50] = test system: LXFL 529
[51] = test system: NCI-H460
[52] = test system: SF-539
[53] = test system: HOP-62
[54] = test system: NCI-H23
[55] = test system: HOP-18
[56] = test system: NCI-H522
[57] = test system: KM12
[58] = test system: SF-295
[59] = test system: RXF 631

Measured: GI50

N=C(NNS(=O)(=O)c1ccccc1)Oc1ccc(Cl)cc1
inactive: [1] 59.8 µM | [2] 48.3 µM | [3] > 100 µM | [4] > 100 µM | [5] 38.3 µM | [6] > 100 µM | [7] > 100 µM | [8] 70.1 µM | [9] 24.8 µM | [10] > 100 µM | [11] > 100 µM | [12] > 100 µM | [13] > 100 µM | [14] > 100 µM | [15] > 100 µM | [16] 78.5 µM | [17] > 100 µM | [18] > 100 µM | [19] 65.8 µM | [20] 60.3 µM | [21] > 100 µM | [22] > 100 µM | [23] > 100 µM | [24] > 100 µM | [25] 5.75 µM | [26] > 100 µM | [27] 35.4 µM | [28] 69.5 µM | [29] > 100 µM | [30] > 100 µM | [31] > 100 µM | [32] > 100 µM | [33] > 100 µM | [34] 21.1 µM | [35] > 100 µM | [36] > 100 µM | [37] > 100 µM | [38] 68.5 µM | [39] 90.2 µM | [40] > 100 µM | [41] > 100 µM | [42] > 100 µM | [43] 43.1 µM | [44] > 100 µM | [45] 11.3 µM | [46] > 100 µM | [47] 44.3 µM | [48] > 100 µM | [50] 51.9 µM | [51] > 100 µM | [52] > 100 µM | [53] > 100 µM | [54] > 100 µM | [55] > 100 µM | [56] > 100 µM | [57] > 100 µM | [58] > 100 µM
33.1 µM: [49]

CC1(c2cccc3ccccc23)OC(=O)c2ccccc21 (configuration not stated)
inactive: [1] 12 µM | [2] 19.3 µM | [3] 21.3 µM | [4] 30.1 µM | [5] 14.3 µM | [6] 30.1 µM | [7] 22.2 µM | [8] 19.6 µM | [9] 12.8 µM | [10] 18.2 µM | [11] 20.7 µM | [12] 15.7 µM | [13] 27 µM | [59] 20.2 µM | [14] 10.8 µM | [15] 22.7 µM | [16] 23.5 µM | [17] 32.5 µM | [18] 70.6 µM | [19] 16.9 µM | [20] 20 µM | [21] 28.1 µM | [22] 15 µM | [23] 22 µM | [24] 19.2 µM | [25] 21 µM | [26] 21.5 µM | [27] 16.2 µM | [28] 13.4 µM | [29] 10 µM | [30] 13.5 µM | [31] 17.2 µM | [32] 26 µM | [33] 57.1 µM | [34] 13.4 µM | [35] 18.2 µM | [36] 16.7 µM | [37] 20.3 µM | [38] 15.1 µM | [39] 22.5 µM | [40] 20.7 µM | [41] 13.3 µM | [42] 27.7 µM | [44] 25.5 µM | [45] 18.5 µM | [46] 21.3 µM | [47] 26.2 µM | [48] 41.7 µM | [50] 26.5 µM | [51] 21.1 µM | [52] 14.6 µM | [53] 18.3 µM | [54] 16 µM | [56] 25.2 µM | [57] 25.1 µM | [58] 17.9 µM
18.6 µM: [49]

O=C(CCC(=O)Nc1ccc(Cl)c(Cl)c1)Cc1nc2ccccc2o1
> 100 µM: [49]
inactive: [1] > 100 µM | [2] > 100 µM | [3] > 100 µM | [4] 67.3 µM | [5] > 100 µM | [6] > 100 µM | [7] > 100 µM | [8] > 100 µM | [9] > 100 µM | [10] > 100 µM | [11] > 100 µM | [12] > 100 µM | [13] > 100 µM | [59] > 100 µM | [14] > 100 µM | [15] > 100 µM | [16] 29.3 µM | [17] > 100 µM | [18] > 100 µM | [19] > 100 µM | [20] > 100 µM | [21] > 100 µM | [22] > 100 µM | [23] > 100 µM | [24] > 100 µM | [25] > 100 µM | [26] > 100 µM | [27] > 100 µM | [28] > 100 µM | [29] > 100 µM | [30] > 100 µM | [31] > 100 µM | [32] > 100 µM | [33] > 100 µM | [34] > 100 µM | [36] > 100 µM | [37] > 100 µM | [38] > 100 µM | [40] > 100 µM | [41] > 100 µM | [42] > 100 µM | [43] > 100 µM | [44] > 100 µM | [45] > 100 µM | [46] > 100 µM | [47] > 100 µM | [48] > 100 µM | [50] > 100 µM | [51] > 100 µM | [52] > 100 µM | [53] > 100 µM | [54] > 100 µM | [55] > 100 µM | [56] > 100 µM | [57] > 100 µM | [58] > 100 µM

Source: ChEMBL document CHEMBL1201862, “PubChem BioAssay data set” (2004)
